# System: FabK
# Assay: FabK activity assay (crotonoyl-ACP reduction, NADH oxidation monitored at 340 nm)
# Assay type: biochemical, Streptococcus pneumoniae
# Details: NH4+ at 100 mM; greatest activation
# Experimental: FabK catalyses the reduction of enoyl-ACPs with the concommitant oxidation of NADH. Crotonoyl-ACP can be prepared as described below. The reduction of crotonoyl-ACP to butyryl-ACP can be monitored by following the change in absorbance at 340 nm as NADH is oxidised.
# Assays were carried out in Costar 3696 half-area plates in a final assay volume of 150 ul on a Spectramax platereader. Substrates, NADH and crotonoyl ACP, were incubated with FabK enzyme in 100 mM N-[2-acetamido]-2 iminodiacetic acid (ADA), pH 6.5, 100 mM NH4Cl, 4% glycerol at 30° C. and the reaction monitored at 340 nm. This assaying can also be performed using crotonyl CoA, NADPH or an NADH analogue as a substrate.
smiles,measurement,value
N [NH4^+],activation of the FabK reaction over the reaction with no monovalent cations,about 300 fold
